Measured values: publication PMC9376960, “Ruthenium(II)–Tris-pyrazolylmethane Complexes Inhibit Cancer Cell Growth by Disrupting Mitochondrial Calcium Homeostasis” (Journal of Medicinal Chemistry, 2022)

What was measured:
[1] = Octanol/water partition coefficient, shake-flask, UV-vis; format: physicochemical
Experimental: Partition coefficients (Pow); IUPAC: […] A stock solution of the selected ruthenium compound (ca. 2 mg) was prepared by first adding MeOH (50 μL, to help solubilization), followed by octanol-saturated water (2.5 mL). The solution was diluted with octanol-saturated water (ca. 1:3 v/v ratio, cRu ≈ 10^-4 M, so that 1.5 ≤ A ≤ 2.0 at λmax), and its UV-vis spectrum was recorded (Aaq^0). An aliquot of the solution (Vaq = 1.2 mL) was transferred into a test tube, and water-saturated octanol (Vorg = Vaq = 1.2 mL) was added. […] The UV-vis spectrum of the aqueous phase was recorded (Aaq^f), and the partition coefficient was calculated as Pow = ([…], where […] are the absorbances in the aqueous phase before and after partition with the organic phase, respectively.[118] For 1, an inverse procedure was followed, starting from a solution of the compound in water-saturated octanol. The partition coefficient was calculated as Pow = Aorg^f/(Aorg^0 - Aorg^f), where Aorg^0 and Aorg^f are the absorbances in the organic phase before and after partition with the aqueous phase, respectively. The wavelength of the maximum absorption of each compound (280-380 nm range) was used for UV-vis quantitation. The procedure was repeated three times for each sample (from the same stock solution); the results are given as mean ± standard deviation (Table 2).

[2] = pH of aqueous solution over time; format: physicochemical; conditions: 10^–3 M H2O solution
Experimental: Reactants and solvents were purchased from Alfa Aesar, Merck, Strem, or TCI Chemicals and were of the highest purity available. Tris(1-pyrazolyl)methane (tpm) was prepared according to the published procedure.[105] Reactions were conducted under a N2 atmosphere using standard Schlenk techniques, and all products were stored in air once isolated. All compounds are >95% pure by elemental analysis. Solvents were used as received unless otherwise stated. Toluene and diethyl ether were dried with the solvent purification system mBraun MB SPS5, while methanol was distilled from calcium hydride and isopropanol from magnesium. IR spectra of solid samples were recorded on an Agilent Cary630 FTIR spectrometer. IR spectra were processed with Spectragryph software.[106] NMR spectra were recorded at 298 K on a JEOL JNM-ECZ500R instrument equipped with a Royal HFX Broadband probe. Chemical shifts (expressed in parts per million) are referenced to the residual solvent peaks (^1H, ^13C)[107] or external standard (^31P to H3PO4). ^1H and ^13C{^1H} NMR spectra were assigned with the assistance of ^1H–^13C (gs-HSQC and gs-HMBC) correlation experiments.[108] Elemental analyses were performed on a Vario MICRO cube instrument (Elementar). Conductivity measurements were performed at 25 °C using an XS COND 8 instrument (cell constant = 1.0 cm^–1).[109],[110] pH measurements were performed with an Orion pH meter equipped with a Hamilton glass pH electrode. ESI-Q/ToF flow injection analysis was carried out using a 1200 Infinity HPLC (Agilent Technologies), coupled to a Jet Stream ESI interface (Agilent) with a Quadrupole-Time-of-Flight tandem mass spectrometer 6530 Infinity Q-TOF (Agilent Technologies).

log Pow [1]	pH(24h) ([2]; 24 h)	pH(48h) ([2]; 48 h)	pH(t0) ([2]; t0)	Substance
–0.20 ± 0.05	–	–	–	[RuCl(κ^3-tpm)(PPh3){CNCH2P(O)(OEt2)2}]Cl [compound 9]
–0.15 ± 0.03	6.66	6.36	6.78	[RuCl(κ^3-tpm)(PPh3){NCHN(Me)(CH)2}]Cl [compound 3]
